Results on 16 compounds are retold here after DBAASP.

≈ marks a conversion by molar mass, not a printed value. Where “and” joins values, the source holds several entries; their conditions need not be identical. Identical values can stand only once.

Common to all, as to assay: ≥ marks a high value that may be exact or a test limit, other limits are often not marked, values filed in µg/mL are converted to µM
Assay [1] deals with Escherichia coli ATCC 25922.
The subject of another assay is Staphylococcus aureus.
Assay [2] has as its system Staphylococcus aureus ATCC 25923.

Broadly, the MIC is the lowest concentration found to suppress growth. Consider `CC[C@H](C)[C@H](NC(=O)[C@H](CCCCN)NC(=O)[C@H](CC(C)C)NC(=O)[C@@H](NC(=O)[C@H](CCCCN)NC(=O)[C@H](C)N)C(C)C)C(=O)N[C@@H](CO)C(=O)N[C@@H](CCCN=C(N)N)C(=O)N[C@@H](CCCN=C(N)N)C(=O)N[C@@H](C)C(=O)N[C@@H](Cc1ccccc1)C(=O)N[C@@H](CCCN=C(N)N)C(=O)N[C@@H](CCCCN)C(N)=O` [AKVLKISRRAFRK], for which the MIC in assay [1] is 22.5 µM and 63.6 µM.
Same read-out and setting: for `CC(C)C[C@H](NC(=O)[C@H](CCC(N)=O)NC(=O)[C@H](CCCCN)NC(=O)[C@H](CCCCN)NC(=O)[C@@H]1CCCN1C(=O)[C@H](C)N)C(=O)N[C@@H](CCCCN)C(=O)N[C@@H](Cc1c[nH]c2ccccc12)C(=O)O` [APKKQLKW] the value was 16 µM (≈ 16 µg/mL).
The compound `CC(C)[C@H](NC(=O)[C@H](CC(N)=O)NC(=O)[C@H](CCCCN)NC(=O)[C@H](CCCN=C(N)N)NC(=O)[C@@H]1CCCN1C(=O)[C@H](C)N)C(=O)N[C@@H](CCCCN)C(=O)N[C@@H](Cc1c[nH]c2ccccc12)C(=O)O` [APRKNVKW] returned a minimal inhibitory concentration (MIC) in assay [1] of 64.1 µM (≈ 64 µg/mL).
The same measure, in the same setting: for `CC(C)[C@H](NC(=O)[C@H](CC(N)=O)NC(=O)[C@H](CCCCN)NC(=O)[C@H](CCCN=C(N)N)NC(=O)[C@@H]1CCCN1C(=O)[C@H](C)N)C(=O)N[C@@H](CCCN=C(N)N)C(=O)N[C@@H](Cc1ccccc1)C(=O)O` [APRKNVRF] the value was 130 µM (≈ 128 µg/mL).
With `CC[C@H](C)[C@H](NC(=O)[C@H](C)NC(=O)[C@H](CO)NC(=O)[C@@H](NC(=O)[C@@H](N)Cc1ccccc1)[C@@H](C)CC)C(=O)N[C@@H](C)C(=O)N[C@@H](CO)C(=O)N[C@@H](Cc1ccccc1)C(=O)N[C@@H](CC(C)C)C(=O)NCC(=O)N[C@@H](CCCCN)C(=O)N[C@@H](Cc1ccccc1)C(=O)N[C@@H](CC(C)C)C(=O)O` [FISAIASFLGKFL], the MIC in the assay on Staphylococcus aureus was 130 µM (≈ 184 µg/mL).
For `CC(C)C[C@H](NC(=O)[C@H](CC(C)C)NC(=O)[C@H](CCCCN)NC(=O)[C@H](CCCCN)NC(=O)[C@H](CC(C)C)NC(=O)[C@H](Cc1c[nH]c2ccccc12)NC(=O)[C@H](CCCCN)NC(=O)[C@H](CC(C)C)NC(=O)[C@@H](N)Cc1ccccc1)C(N)=O` [FLKWLKKLL], in assay [1], the MIC was 6.73 µM and 13.5 µM.
On to `CC[C@H](C)[C@H](NC(=O)[C@H](CCCN=C(N)N)NC(=O)[C@H](CCCCN)NC(=O)[C@H](CC(C)C)NC(=O)[C@H](C)NC(=O)CN)C(=O)N[C@@H](CCCCN)C(=O)N[C@H](C(=O)N[C@@H](CC(C)C)C(=O)N[C@@H](CC(C)C)C(N)=O)[C@@H](C)O` [GALKRIKTLL], for which the MIC in assay [1] and in assay [2] was above 38.7 µM throughout.
As for `CC[C@H](C)[C@H](NC(=O)CN)C(=O)N[C@@H](Cc1ccccc1)C(=O)N[C@@H](CC(C)C)C(=O)N[C@@H](CC(=O)O)C(=O)N[C@@H](CCCCN)C(=O)N[C@@H](CC(C)C)C(=O)N[C@@H](CCCCN)C(=O)N[C@@H](CC(N)=O)C(=O)N[C@@H](Cc1ccccc1)C(=O)N[C@@H](C)C(=O)N[C@@H](CCCCN)C(=O)NCC(=O)N[C@H](C(=O)N[C@@H](C)C(=O)N[C@@H](CCC(N)=O)C(=O)N[C@@H](CO)C(=O)N[C@@H](CC(C)C)C(=O)N[C@@H](CC(C)C)C(=O)N[C@@H](CC(N)=O)C(=O)N[C@@H](CCCCN)C(=O)N[C@@H](C)C(=O)N[C@@H](CO)C(=O)N[C@H]1CSSC[C@@H](C(=O)O)NC(=O)[C@H](CCC(N)=O)NC(=O)CNC(=O)[C@H](CO)NC(=O)[C@H](CC(C)C)NC(=O)[C@H](CCCCN)NC1=O)C(C)C` [GIFLDKLKNFAKGVAQSLLNKASCKLSGQC], the MIC in assay [1] came out at 2 µM (≈ 6.36 µg/mL).
Turning to `CC[C@H](C)[C@H](NC(=O)[C@H](CCCN=C(N)N)NC(=O)[C@H](C)NC(=O)[C@H](CC(C)C)NC(=O)[C@H](CC(C)C)NC(=O)CN)C(=O)N[C@@H](CCCCN)C(=O)N[C@H](C(=O)N[C@@H](CC(C)C)C(=O)N[C@@H](CC(C)C)C(N)=O)[C@@H](C)O` [GLLARIKTLL], the MIC in assay [1] was 14.6 µM (≈ 16 µg/mL); in assay [2], 25.5 µM (≈ 28 µg/mL).
For `CC[C@H](C)[C@H](NC(=O)[C@H](CC(N)=O)NC(=O)[C@H](CCCCN)NC(=O)[C@H](CC(C)C)NC(=O)[C@H](CC(C)C)NC(=O)CN)C(=O)N[C@@H](CCCCN)C(=O)N[C@H](C(=O)N[C@@H](CC(C)C)C(=O)N[C@@H](CC(C)C)C(N)=O)[C@@H](C)O` [GLLKNIKTLL], the MIC in assay [1] was determined as 30.6 µM (≈ 34 µg/mL); in assay [2], 62 µM (≈ 68.9 µg/mL).
In assay [1], `CC[C@H](C)[C@H](NC(=O)[C@H](C)NC(=O)CNC(=O)[C@H](C)NC(=O)[C@H](CCCCN)NC(=O)[C@H](CO)NC(=O)[C@H](C)NC(=O)[C@H](CCSC)NC(=O)CN)C(=O)N[C@@H](C)C(=O)NCC(=O)N[C@@H](CCCCN)C(=O)N[C@H](C(=O)N[C@@H](C)C(=O)N[C@@H](CCCCN)C(=O)N[C@H](C(=O)N[C@@H](C)C(=O)N[C@@H](CC(C)C)C(=O)N[C@@H](CCCCN)C(=O)N[C@@H](C)C(=O)N[C@@H](CC(C)C)C(=O)NCC(=O)NCC(=O)N[C@@H](CS)C(N)=O)C(C)C)[C@@H](C)CC` [GMASKAGAIAGKIAKVALKALGGC] showed an MIC of 6.3 µM (≈ 13.8 µg/mL).
The compound `CC[C@H](C)[C@H](NC(=O)[C@H](C)NC(=O)CNC(=O)[C@H](C)NC(=O)[C@H](CCCCN)NC(=O)[C@H](CO)NC(=O)[C@H](C)NC(=O)[C@H](CCSC)NC(=O)CN)C(=O)N[C@@H](C)C(=O)NCC(=O)N[C@@H](CCCCN)C(=O)N[C@H](C(=O)N[C@@H](C)C(=O)N[C@@H](CCCCN)C(=O)N[C@H](C(=O)N[C@@H](C)C(=O)N[C@@H](Cc1c[nH]c2ccccc12)C(=O)N[C@@H](CCCCN)C(=O)N[C@@H](C)C(=O)N[C@@H](CC(C)C)C(=O)NCC(=O)NCC(=O)N[C@@H](CO)C(N)=O)C(C)C)[C@@H](C)CC` [GMASKAGAIAGKIAKVAWKALGGS] had an MIC in assay [1] of 12.5 µM (≈ 28 µg/mL).
Same read-out and setting: the result for `CC[C@H](C)[C@H](NC(=O)[C@H](CCCN=C(N)N)NC(=O)[C@H](CCCCN)NC(=O)[C@H](CC(C)C)NC(=O)[C@H](CCSC)NC(=O)CN)C(=O)N[C@@H](CCCCN)C(=O)N[C@H](C(=O)N[C@@H](CC(C)C)C(=O)N[C@@H](CC(C)C)C(N)=O)[C@@H](C)O` [GMLKRIKTLL] reads 200 µM (≈ 234 µg/mL); that for `CC(C)C[C@H](NC(=O)[C@H](Cc1ccccc1)NC(=O)[C@@H]1CCCN1C(=O)[C@H](Cc1c[nH]c2ccccc12)NC(=O)[C@H](Cc1c[nH]c2ccccc12)NC(=O)[C@H](Cc1c[nH]c2ccccc12)NC(=O)[C@@H]1CCCN1C(=O)[C@H](Cc1ccccc1)NC(=O)[C@H](CCCN=C(N)N)NC(=O)[C@H](CCCN=C(N)N)NC(=O)[C@@H](NC(=O)[C@@H](NC(=O)CN)[C@@H](C)O)C(C)C)C(=O)N[C@@H](CCCN=C(N)N)C(=O)N[C@@H](CCCN=C(N)N)C(=O)O` [GTVRRFPWWWPFLRR], 8 µM (≈ 16.5 µg/mL).
In the case of `C[C@@H](O)[C@H](NC(=O)[C@H](CO)NC(=O)[C@H](CO)NC(=O)[C@@H](N)CCCCN)C(=O)N[C@@H](CCCN=C(N)N)C(=O)NCC(=O)N[C@@H](CCCN=C(N)N)C(=O)N[C@@H](CCCCN)C(=O)N[C@@H](CO)C(=O)N[C@@H](CO)C(=O)N[C@@H](CCCN=C(N)N)C(=O)N[C@@H](CCCN=C(N)N)C(=O)N[C@@H](CCCCN)C(=O)N[C@@H](CCCCN)C(=O)O` [KSSTRGRKSSRRKK], the MIC in assay [1] is 120 µM (≈ 200 µg/mL); in assay [2], above 308 µM.
Compound `CC(C)C[C@H](NC(=O)[C@H](CCC(N)=O)NC(=O)[C@H](CCCCN)NC(=O)[C@H](CCCN=C(N)N)NC(=O)[C@H](Cc1ccccc1)NC(=O)[C@@H](N)CC(C)C)C(=O)N[C@@H](CCCCN)C(=O)N[C@@H](Cc1c[nH]c2ccccc12)C(=O)O` [LFRKQLKW] displayed an MIC in assay [1] of 1.79 µM (≈ 2 µg/mL).
